Test results from article PMC10526447 (Biomolecules, 2023).
pIC50, pKd: −log10 of the molar value. Read-outs that look alike come from different tables or passages of the source. Positions of bridges follow the written chain, without caps; N, C: chain ends. No end group written: not given here.

What was measured:
HCoV-OC43 = type: in vivo, ICR mice (newborn)
[1] = in vivo; cited from earlier work
Pseudotyped HCoV-OC43 = conditions: 48 h
live HCoV-229E = conditions: 8 h
Pseudotyped WIV1-CoV = conditions: 48 h
Pseudotyped HCoV-229E = conditions: 48 h
Pseudotyped SARS-CoV-2 [2] = conditions: 48 h
WIV1-CoV S protein = type: cell-based; conditions: read-out: IC50 against Cell-Cell Fusion Mediated by S Proteins of CoVs
SARS-CoV-2 PsV = conditions: 48 h
SARS-CoV-2 HR1P = SARS-CoV-2 HR1P (Severe acute respiratory syndrome coronavirus 2, UniProt P0DTC2); type: physicochemical; conditions: pH 7.2
SARS-CoV PsV = conditions: rhesus monkey, in vivo
live HCoV-OC43 = conditions: 8 h
Pseudotyped SARS-CoV-2 [3] = conditions: 48 h; remark: listed apart in the source
Pseudotyped SARS-CoV [4] = conditions: 48 h
Pseudotyped MERS-CoV [5] = conditions: 48 h
Pseudotyped MERS-CoV [6] = conditions: 48 h; remark: listed apart in the source
HCoV-229E S protein = HCoV-229E S protein (Human coronavirus 229E, UniProt P15423); assay: cell-based
Pseudotyped SARS-CoV [7] = conditions: 48 h; remark: listed apart in the source
MERS-CoV S protein = MERS-CoV S protein (Middle East respiratory syndrome-related coronavirus, UniProt K9N5Q8); assay: cell-based
HCoV-NL63 S protein = HCoV-NL63 S protein (Human coronavirus NL63, UniProt Q6Q1S2); assay: cell-based
HCoV-OC43 S protein = HCoV-OC43 S protein (Human coronavirus OC43, UniProt P36334); assay: cell-based
SARS-CoV S protein = SARS-CoV S protein (Severe acute respiratory syndrome coronavirus, UniProt P59594); assay: cell-based
Pseudotyped HCoV-NL63 [8] = conditions: 48 h
Pseudotyped HCoV-NL63 [9] = conditions: 48 h; remark: listed apart in the source
SARS-CoV-2 S protein [10] = target: T1, SARS-CoV-2 S protein (Severe acute respiratory syndrome coronavirus 2, UniProt P0DTC2); assay: cell-based; conditions: IC50 against Cell-Cell Fusion Mediated by S Proteins of CoVs
[11] = mouse, in vivo, 50 mg/kg
in vitro = conditions: human, Caco-2, Calu-3, RD and Huh-7 cells
[12] = test system: Caco-2, Calu-3, RD and Huh-7 cells; conditions: 24 h
[13] = rhesus monkey, in vivo, iv, 10 mg/kg
[14] = test system: pseudotyped SARS-CoV-2 VOCs; conditions: 48 h
in vivo = conditions: rhesus monkey, iv, 10 mg/kg
SARS-CoV-2 S protein [15] = target: T1, SARS-CoV-2 S protein; assay: cell-based
proteinase K = proteinase K (Parengyodontium album, UniProt P06873)
[16] = target: SARS-CoV-2 HR1 peptide (SARS-CoV-2)
[17] = target: human immunoglobulin G (IgG) (human); assay: BLI

Sequence of proteinase K (P06873 106-384): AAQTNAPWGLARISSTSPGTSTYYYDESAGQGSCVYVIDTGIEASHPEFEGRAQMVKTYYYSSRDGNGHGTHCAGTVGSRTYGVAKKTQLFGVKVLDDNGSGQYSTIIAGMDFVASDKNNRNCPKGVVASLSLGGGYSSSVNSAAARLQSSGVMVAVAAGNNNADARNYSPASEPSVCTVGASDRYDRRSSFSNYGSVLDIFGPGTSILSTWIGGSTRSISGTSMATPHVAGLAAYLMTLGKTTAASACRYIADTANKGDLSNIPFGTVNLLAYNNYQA

CC[C@H](C)[C@H](NC(=O)[C@H](C)NC(=O)[C@H](CCC(=O)O)NC(=O)[C@H](CCC(=O)O)NC(=O)[C@H](CC(C)C)NC(=O)[C@H](CCCCN)NC(=O)[C@H](CCCCN)NC(=O)[C@H](CCSC)NC(=O)[C@H](CCC(=O)O)NC(=O)[C@H](Cc1ccc(O)cc1)NC(=O)[C@H](CCC(=O)O)NC(=O)[C@H](CC(C)C)NC(=O)[C@H](CC(=O)O)NC(=O)[C@H](CC(C)C)NC(=O)[C@H](Cc1ccccc1)NC(=O)[C@@H](NC(=O)[C@@H](NC(=O)[C@H](CC(N)=O)NC(=O)[C@@H](NC(=O)[C@H](CCC(N)=O)NC(=O)[C@H](CC(=O)O)NC(=O)[C@H](CC(C)C)NC(=O)[C@@H](N)CO)[C@@H](C)CC)C(C)C)[C@@H](C)O)C(=O)N[C@@H](CCCCN)C(=O)N[C@@H](CCCCN)C(=O)N[C@@H](CC(C)C)C(=O)N[C@@H](CCC(=O)O)C(=O)N[C@@H](CCC(=O)O)C(=O)N[C@@H](CO)C(=O)N[C@@H](Cc1ccc(O)cc1)C(=O)N[C@H](C(=O)N[C@@H](CC(=O)O)C(=O)N[C@@H](CC(C)C)C(=O)N[C@@H](CCCCN)C(=O)N[C@@H](CCC(=O)O)C(=O)N[C@@H](CC(C)C)C(=O)O)[C@@H](C)CC [EK1]
protection (survival), prophylactic (HCoV-OC43; 3-day-old suckling mice, 10 mg/kg intranasal single dose 1 h before HCoV-OC43 (100 TCID50) challenge): 100%
viral loads in mouse brain, therapeutic group (HCoV-OC43; day 5 post challenge, 10 mg/kg intranasal 1 h after challenge, vs viral control): significantly different from those of viral control group
viral loads in mouse brain, prophylactic group (HCoV-OC43; day 5 post challenge, 10 mg/kg intranasal 1 h before challenge, relative RNA quantification vs viral control): very low
t1/2 (reported value) [1]: 1.8 h
pIC50 (Pseudotyped HCoV-OC43): 5.44
pIC50 (live HCoV-229E): 5.12
pIC50 (Pseudotyped WIV1-CoV): 5.16
pIC50 (Pseudotyped HCoV-229E): 5.46
pIC50 (Pseudotyped SARS-CoV-2 [2]): 6.60
pIC50 (WIV1-CoV S protein): 6.23
pIC50 (SARS-CoV-2 PsV): 6.10
Tm of complex with SARS-CoV-2 HR1P (SARS-CoV-2 HR1P): 51.05 °C
ex vivo inhibition of SARS-CoV PsV by serum (fold of its IC50) (SARS-CoV PsV; iv, 10 mg/kg): below 450 fold
t1/2 (SARS-CoV PsV; iv, 10 mg/kg): 1.77 h
pIC50 (live HCoV-OC43): 6.12

CC(C)C[C@@H]1NC(=O)[C@H](Cc2c[nH]cn2)NC(=O)[C@H](Cc2c[nH]c3ccccc23)NC(=O)[C@H](C)NC(=O)[C@@H](NC(=O)[C@@H](N)CC(=O)O)CSSC[C@@H](C(=O)N[C@H](C(=O)O)[C@@H](C)O)NC(=O)[C@H](Cc2c[nH]c3ccccc23)NC(=O)[C@H](C(C)C)NC(=O)[C@H](CC(C)C)NC(=O)[C@H](CCC(=O)O)NC(=O)CNC1=O [IBP]
pIC50 (Pseudotyped SARS-CoV-2 [3]): < 4.30
pIC50 (Pseudotyped SARS-CoV [4]): < 4.30
pIC50 (Pseudotyped MERS-CoV [5]): < 4.30
pIC50 (Pseudotyped MERS-CoV [6]): < 4.30
pIC50 (HCoV-229E S protein): < 4.30
pIC50 (Pseudotyped HCoV-OC43): < 4.30
pIC50 (live HCoV-229E): < 4.30
pIC50 (Pseudotyped SARS-CoV [7]): < 4.30
pIC50 (MERS-CoV S protein): < 4.30
pIC50 (Pseudotyped WIV1-CoV): < 4.30
pIC50 (Pseudotyped HCoV-229E): < 4.30
pIC50 (Pseudotyped SARS-CoV-2 [2]): < 4.30
pIC50 (HCoV-NL63 S protein): < 4.30
pIC50 (HCoV-OC43 S protein): < 4.30
pIC50 (SARS-CoV-2 PsV): < 4.00
pIC50 (SARS-CoV S protein): < 4.30
pIC50 (Pseudotyped HCoV-NL63 [8]): < 4.30
pIC50 (Pseudotyped HCoV-NL63 [9]): < 4.30
pIC50 (SARS-CoV-2 S protein [10]): < 4.00
pIC50 (live HCoV-OC43): < 4.30

DCAWHLGELVWCTGGSSLDQINVTFLDLEYEMKKLEEAIKKLEESYIDLKEL (disulfide 2-12) [IBP-L-EK1]
pIC50 (SARS-CoV-2 PsV): 6.09

DCAWHLGELVWCTSLDQINVTFLDLEYEMKKLEEAIKKLEESYIDLKEL (disulfide 2-12) [IBP-EK1]
pIC50 (HCoV-229E S protein): 6.32
ALT level in sera [11]: in the normal range
IBP-EK1-specific antibodies in sera (immunogenicity) [11]: no IBP-EK1-specific antibodies were detected
body weight changes [11]: weight changes similar to those of the PBS-treated group
creatinine level in sera [11]: in the normal range
histopathology of lungs, livers and kidneys (H&E) [11]: no pathological abnormalities in their organs
pIC50 (Pseudotyped HCoV-OC43): 5.45
pIC50 (live HCoV-229E): 5.38
pIC50 (MERS-CoV S protein): 6.42
CC50 at 48 h (in vitro): > 100 µM
pIC50 (Pseudotyped WIV1-CoV): 5.22
selectivity index (SI = CC50/IC50) [12]: more than 100
pIC50 (Pseudotyped HCoV-229E): 5.48
pIC50 (Pseudotyped SARS-CoV-2 [2]): 6.74
pIC50 (HCoV-NL63 S protein): 6.67
pIC50 (HCoV-OC43 S protein): 6.08
AUC [13]: 2207.03 µg·h/mL
pIC50 (SARS-CoV-2 PsV): 6.10
pIC50 [14]: 6.53 to 6.77
Cmax (in vivo): 51.7 µg/mL
Tmax (in vivo): 2 h
half-life (in vivo): 37.7 h
level at 24 h (in vivo): ~24 µg/mL
pIC50 (SARS-CoV S protein): 6.64
pIC50 (SARS-CoV-2 S protein [10]): 6.29
pIC50 (SARS-CoV-2 S protein [15]): 6.49
residual inhibitory activity against SARS-CoV-2 PsV after trypsin treatment (trypsin): significantly better inhibitory activities than those of EK1
half-life relative to that of EK1 (SARS-CoV PsV): about 21 fold
AUC (SARS-CoV PsV; iv, 10 mg/kg): 5228.98 µg·h/mL
Cmax (SARS-CoV PsV; iv, 10 mg/kg): 116.09 µg/mL
Tmax (SARS-CoV PsV; iv, 10 mg/kg): 2 h
t1/2 (SARS-CoV PsV; iv, 10 mg/kg): 39.72 h
pIC50 (live HCoV-OC43): 6.13
residual inhibitory activity against SARS-CoV-2 PsV after proteinase K treatment (proteinase K): significantly better inhibitory activities than those of EK1

EK1 (peptide)
IC50 against pseudotyped SARS-CoV-2 infection of Caco-2 cells [16]: 0.59 µM
IC50 against pseudotyped SARS-CoV-2 infection of Calu-3 cells [16]: 0.253 µM

IBP-EK1 (peptide)
pKd [17]: 6.66
IC50 against pseudotyped SARS-CoV-2 infection of Caco-2 cells [16]: 0.512 µM
IC50 against pseudotyped SARS-CoV-2 infection of Calu-3 cells [16]: 0.18 µM

SLDQINVTFLDLEYEMKKLEEAIKKLEESYIDLKELDCAWHLGELVWCT (disulfide 38-48) [EK1-IBP]
pIC50 (SARS-CoV-2 PsV): 5.93

SLDQINVTFLDLEYEMKKLEEAIKKLEESYIDLKELGGSDCAWHLGELVWCT (disulfide 41-51) [EK1-L-IBP]
pIC50 (SARS-CoV-2 PsV): 5.93

human immunoglobulin G Fc-binding peptide (IBP)
pKd [17]: 5.99
